US20240041708A1, “DEHYDRATED SOAP AND CLEANER TABLET COMPOSITION” (HAPPY GO LUCKY LLC, priority 2022, published 2024)
“Also recorded” adds a separate entry of the source.

Assays:
Candida albicans = conditions: fungus Candida albicans; cited from earlier work
environmental microbes = test: Rehydrated tablet stability testing (daily scent, clarity, particulates, pressure; pass/fail); conditions: as preservative in Comparative Examples 3 and 4
Text: The key goals for the present invention, given that it is intended to be used for bottles that will be refilled many times to reduce plastic waste, are for the rehydrated formula to: • (a) be stable once rehydrated, meaning that the solution would no discernible microbial growth over a multi-month period of time and would maintain its physical characteristics, and • (b) work within an acceptable manufacturing process (both physically and in terms of cost).
In terms of physical characteristics measured, once the test tablets had been rehydrated, several observables were tracked each day such as scent, clarity, presence of particulates and pressure.
Scent was measured by comparing the scent each day to the original scent of an initially rehydrated bottle. When microbial activity is present it can create compounds, which add a distinctly unpleasant odor to the compositions. 2 Given the sensitivity of the human nose to such compounds, this would be a clear aesthetic failure for the product even if overall microbial growth remained below a level that could be harmful or otherwise impact use.
Regarding clarity, initially rehydrated solutions are completely transparent. […]
Once the initial dissolution process is complete, a rehydrated solution should contain no free-floating particulates. The appearance of any particles within the solution was recorded and visually evaluated. […]

bacteria = test: Inhibitory effect of IPBC against bacteria tested; format: cell-based
Text: (§1) In Examples 1 and 2, the concentration of IPBC was in the 100 ppm to 160 ppm range. This range inhibits the growth of all three categories of microbes. An amount of 100 ppm is a minimum safe amount to inhibit most types of microbial growth.

fungus and yeast = test: Growth inhibition of fungus and yeast by IPBC; format: cell-based; conditions: 100 ppm to 160 ppm
Text: as §1

mold/mildew/yeast/fungi = conditions: cited from earlier work
algae = conditions: cited from earlier work
[1] = at comparable concentrations; cited from earlier work

Molecule | MIC (Candida albicans) | effectiveness in stability testing (preservation) (environmental microbes) | concentration with inhibitory effect against most bacteria tested (bacteria) | inhibition of growth of fungus and yeast (fungus and yeast) | minimum inhibitory concentration (MIC) (mold/mildew/yeast/fungi) | minimum inhibitory concentration (MIC) (algae) | comedogenicity [1]
O=C([O-])c1ccccc1.[Na+] [sodium benzoate, reference compound] | about 2500 ppm |  |  |  |  |  | 
benzalkonium chloride [BKC] |  | somewhat effective; also recorded: better preservation than other non-IPBC-containing compositions tested |  |  |  |  | 
iodopropynyl butylcarbamate [IPBC] | about 8 ppm |  | 100 ppm | significantly inhibits | ≤ 10 ppm | ≤ 50 ppm | noncomedogenic
